# Experimental data as given in US10183015B2, “Heterocyclic compounds and methods of use” (Medivation Technologies LLC, priority 2015, dated 2019).
# “And” between values parts separate entries of the source, which are not always exact repeats. Equal values may be shown once.
# Columns and labels:
# Type in all cases: in vivo
# MCP-1 = experiment: Short-term Paigen-diet NASH mouse model: hepatic MCP-1 gene expression (RT-qPCR); set-up: key to MCP-1 gene expression: 2DDct: expression relative to vehicle group, normalized to 18S (2^-ΔΔCt); key to MCP-1 gene expression: DDct: ΔCt (vs 18S) relative to vehicle group; conditions: 21 days
# Description: To investigate whether Compound #37 prevents the development of pathology associated with NASH and steatosis in an acute exploratory disease model, a study was conducted using a diet-induced acute liver steatosis model in mice. As described below, in this study, C57BL/6J mice were initiated on the Paigen diet and simultaneously treated with Compound #37 (5, 20, and 40 mg/kg/day) or vehicle control (20% HPβCD 10 mL/kg/day) by oral gavage for 21 days.
# After acclimation, 8-week old male C57Bl/6J mice (Charles River) weighing about 25 g were randomized in 4 groups according their body weight and treated once daily around noon by oral gavage with vehicle, or Compound #37 at various for 21 days as follows: Group 1: vehicle-20% (2-hydroxypropyl)-β-cyclodextrin (HP-β-CD) (n=10); Group 2: Compound #37, 5 mg/kg ([…]) Group 4: Compound #37, 40 mg/kg (n=10). During the treatment period, body weight and food intake (measured over 24h) were measured 3 times per week and once a week, respectively. During the acclimation, all mice were fed a standard diet (Special Diets Services RM1 (E), product no. 801492) and tap water ad libitum. After the acclimation period, mice were fed until the end of the experiment with a 60% high fat Paigen diet (60 kcal % fat, 1.25% cholesterol, and 0.5% cholate; D11061901, Research Diet) and tap water ad libitum.
# Gene expression analysis. Hepatic expression levels of genes involved in lipid metabolism (FAS, SREBP1, ACC1, SCD1), cholesterol metabolism (HMG-CoAR, LDLR), SREBP proteolysis (SCAP, INSIG1), ER stress (PERK), oxidative stress (NRF2), inflammation (MCP-1), and fibrosis (collagen 1α1) were quantified by RTqPCR. Expression level was normalized to 18S gene expression and relative expression to vehicle group was calculated with the […] method.
# leptin = experiment: DIN mouse model: plasma leptin; conditions: for plasma leptin day 70: day 70, 20 mg/kg
# Description: (§1) Male C57Bl/6J mice (8 weeks old) were housed in enriched ventilated cages (31×12.5×12.7 cm) throughout the experimental phase. Animals' cages litters were changed at least once a week. Animal were housed 5 per cage on inverted 12-hour light cycle (at 09:00 am lights off), 22±2° C. and 55±10% relative humidity. The acclimation period was 20 days. During the acclimation period, all mice were fed a standard diet (RM1 (E) 801492, SDS) and tap water ad libitum. After the acclimation period, mice were fed with the DIN diet (60% fat, cholesterol enriched) and fructose-enriched tap water ad libitum until the end of the experiment.
# (§2) At 6 weeks of diet, mice were 4-hour fasted (09:00 am to 1:00 pm) and blood (150 μl/EDTA) was collected at 01:00 pm by retro-orbital bleeding under isoflurane anesthesia. Mice were then allocated in 2 homogenous groups (n=12/group) according to their plasma levels of ALT (average levels: 685U/L), AST (average levels: 627U/L) and HOMA-IR index (average value: 4.7), into 2 homogenous groups (see values at day 0 in Tables 15A and 15B ALT/AST and Tables 16A and 16B for HOMA-IR). Mice were then treated once daily by oral gavage with vehicle (Group 1) or Compound #37 at 20 mg/kg (Group 2) for 70 days.
# To investigate whether Compound #37 improves pre-existing steatosis/NASH pathology, a study was conducted using a 16-week diet-induced NASH mouse model. In this model, mice develop steatosis that progresses with inflammation and fibrosis that mimic many of the observed pathologies in human nonalcoholic fatty liver disease (NAFLD) and NASH (Hebbard & George, 2010). For 6 weeks, mice were fed a high-fat, high-cholesterol diet and provided drinking water containing fructose to induce liver pathology (Charlton et al, 2011). […]
# [1] = system: diet-induced NASH obese insulin resistant mice; experiment: DIN mouse model: liver Sirius Red staining (% labeling, collagen deposition); conditions: for Sirius red labeling: liver
# Description: as §1, §2
# Slides having a single hepatic lobe section stained with H&E and […] were digitized using a Nanozoomer from Hamamatsu. Sections were evaluated with knowledge of groups. In agreement with the unchanged hepatic triglycerides levels, oil red O staining and % labeling was not changed with Compound #37. A substantial reduction in Sirius Red labeling was also observed, leading to a 61% reduction (p<0.001 vs. vehicle) in % labeling.
# To investigate whether Compound #37 improves pre-existing steatosis/NASH pathology, a study was conducted using a 16-week diet-induced NASH mouse model. In this model, mice develop steatosis that progresses with inflammation and fibrosis that mimic many of the observed pathologies in human nonalcoholic fatty liver disease (NAFLD) and NASH (Hebbard & George, 2010). […]
# [2] = system: 60% high fat Paigen diet induced NASH mouse model; experiment: Short-term Paigen-diet NASH mouse model: liver Oil Red O staining; conditions: 40 mg/kg p.o. (stopped after 4 administrations), 9 days of diet
smiles,measurement,setting,value
"CC(C)Cc1cc(-c2nc(-c3ccc(NS(=O)(=O)C(F)(F)F)cc3Cl)cs2)ccn1 [Compound 37, N-(3-chloro-4-(2-(2-isobutylpyridin-4-yl)thiazol-4-yl)phenyl)-1,1,1-trifluoromethanesulfonamide]",MCP-1 gene expression: 2DDct,"MCP-1; 5 mg/kg, group mean, n 10",0.74
same,MCP-1 gene expression: DDct,"MCP-1; 5 mg/kg, group mean, n 10",0.62
same,MCP-1 gene expression: Dct,"MCP-1; 5 mg/kg, group mean, n 10",13.9
same,MCP-1 gene expression: MCP-1,"MCP-1; 5 mg/kg, group mean, n 10",26.2
same,MCP-1 gene expression: 2DDct,"MCP-1; 5 mg/kg, individual animals",1.08 and 0.98 and 0.28 and 1.4 and 0.5 and 0.46 and 0.85 and 1.04 and 0.48 and 0.33
same,MCP-1 gene expression: DDct,"MCP-1; 5 mg/kg, individual animals",−0.11 and 0.03 and 1.82 and −0.49 and 0.99 and 1.11 and 0.24 and −0.06 and 1.07 and 1.59
same,MCP-1 gene expression: Dct,"MCP-1; 5 mg/kg, individual animals",13.2 and 13.36 and 15.15 and 12.84 and 14.32 and 14.44 and 13.57 and 13.27 and 14.4 and 14.92
same,MCP-1 gene expression: MCP-1,"MCP-1; 5 mg/kg, individual animals",26.68 and 26.47 and 26.76 and 26.19 and 26.35 and 27.79 and 25.17 and 25.06 and 25.54 and 26.04
same,MCP-1 gene expression: 2DDct,"MCP-1; 20 mg/kg, group mean, n 6",2.15
same,MCP-1 gene expression: DDct,"MCP-1; 20 mg/kg, group mean, n 6",−0.5
same,MCP-1 gene expression: Dct,"MCP-1; 20 mg/kg, group mean, n 6",12.8
same,MCP-1 gene expression: MCP-1,"MCP-1; 20 mg/kg, group mean, n 6",25
same,MCP-1 gene expression: 2DDct,"MCP-1; 20 mg/kg, individual animals",1.27 and 2.99 and 4.08 and 3.73 and 0.54 and 0.26
same,MCP-1 gene expression: DDct,"MCP-1; 20 mg/kg, individual animals",−0.35 and −1.58 and −2.03 and −1.9 and 0.88 and 1.95
same,MCP-1 gene expression: Dct,"MCP-1; 20 mg/kg, individual animals",12.98 and 11.75 and 11.3 and 11.43 and 14.21 and 15.28
same,MCP-1 gene expression: MCP-1,"MCP-1; 20 mg/kg, individual animals",25.89 and 24.04 and 23.5 and 24.46 and 25.7 and 26.54
same,plasma leptin reduction,"leptin; 20 mg/kg, end of the treatment period, vs. vehicle",38%
same,plasma leptin day 70,"leptin; group mean, n 11",265 pg/mL
same,plasma leptin day 70,leptin; individual animals,454 pg/mL and 330 pg/mL and 202 pg/mL and 280 pg/mL and 341 pg/mL and 144 pg/mL and 294 pg/mL and 46 pg/mL and 269 pg/mL and 374 pg/mL and 187 pg/mL
same,Sirius Red % labeling reduction,"[1]; 20 mg/kg, 70 days, p<0.001 vs. vehicle",61%
same,Sirius red labeling,"[1]; 20 mg/kg group, mean, n 11",0.7%
same,Sirius red labeling,"[1]; 20 mg/kg, individual animals",0.5% and 0.8% (4×) and 0.6% (2×) and 1.0% and 0.9% and 0.7% (2×)
same,"Liver O red Oil staining, % labeling",[2]; group mean,1.87%
same,"Liver O red Oil staining, % labeling",[2]; individual animals,2.53% and 2.54% and 1.12% and 1.28%
